The values that follow come from BindingDB's records for doi:10.1021/jm1006148 (Sri International, 2010).

pKi: −log10 of the molar value.

The experiment addresses Neuronal acetylcholine receptor subunit alpha-7 (Rattus norvegicus, UniProt Q05941). The experiment in a line: Displacement of [3H]epibatidine from alpha7 nAChR in rat brain membranes after 2 hrs. A general note: Displacement assays read how much labelled ligand stays bound in the presence of the test substance.

Sequence of Neuronal acetylcholine receptor subunit alpha-7 (Q05941 whole entry): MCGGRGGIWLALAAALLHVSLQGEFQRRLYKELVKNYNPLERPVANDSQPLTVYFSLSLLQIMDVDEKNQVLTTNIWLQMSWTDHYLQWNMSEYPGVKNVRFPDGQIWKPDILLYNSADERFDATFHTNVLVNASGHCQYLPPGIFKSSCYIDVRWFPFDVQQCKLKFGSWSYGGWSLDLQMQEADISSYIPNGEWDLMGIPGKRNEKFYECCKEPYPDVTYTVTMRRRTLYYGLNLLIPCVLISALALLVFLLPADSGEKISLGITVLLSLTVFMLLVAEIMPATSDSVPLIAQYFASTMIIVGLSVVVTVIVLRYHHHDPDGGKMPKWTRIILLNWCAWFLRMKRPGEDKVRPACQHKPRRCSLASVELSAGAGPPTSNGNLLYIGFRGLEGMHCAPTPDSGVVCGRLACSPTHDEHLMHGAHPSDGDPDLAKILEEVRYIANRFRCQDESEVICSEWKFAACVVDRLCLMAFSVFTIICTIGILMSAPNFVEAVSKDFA

The pKi is the Ki on a negative log10 scale, so that one unit is a factor of ten. Higher therefore signals a low Ki. In turn, `CN1C2CCCC1CC(N1C(=O)Cc3ccccc31)C2` (stereo unspecified) [1-(1-(9-methyl-9-azabicyclo[3.3.1]nonan-3-yl)indolin-2-one] gave a negative logarithm of the Ki (pKi) of less than 4.00.
